According to patent US7503967B2, “Azo compound, ink composition and colored article” (Nippon Kayaku Kabushiki Kaisha, priority 2004, dated 2009):

Assay: solubility in water of the azo compound
Type: physicochemical
Details: mixed salt of lithium and sodium

Row | SMILES | solubility [mg/mL]
1 | Nc1c(N=Nc2ccc3c(O)c(N=Nc4ccc(N=Nc5ccc(S(=O)(=O)O)cc5)cc4S(=O)(=O)O)c(S(=O)(=O)O)cc3c2S(=O)(=O)O)cc(S(=O)(=O)O)c2cc(S(=O)(=O)O)c(N=Nc3ccc(S(=O)(=O)O)cc3[N+](=O)[O-])c(O)c12 [compound 3] | ≥ 100
2 | Nc1c(N=Nc2ccc3c(O)c(N=Nc4ccc(N=Nc5ccc(S(=O)(=O)O)cc5)cc4S(=O)(=O)O)c(S(=O)(=O)O)cc3c2S(=O)(=O)O)cc(S(=O)(=O)O)c2cc(S(=O)(=O)O)c(N=Nc3ccc([N+](=O)[O-])cc3S(=O)(=O)O)c(O)c12 [compound 1] | ≥ 100
3 | Cc1cc(N=Nc2c(S(=O)(=O)O)cc3c(S(=O)(=O)O)c(N=Nc4cc(S(=O)(=O)O)c5cc(S(=O)(=O)O)c(N=Nc6ccc([N+](=O)[O-])cc6S(=O)(=O)O)c(O)c5c4N)ccc3c2O)c(OCCCS(=O)(=O)O)cc1N=Nc1ccc([N+](=O)[O-])cc1S(=O)(=O)O [compound 16] | ≥ 100
4 | Cc1cc(N=Nc2c(S(=O)(=O)O)cc3c(S(=O)(=O)O)c(N=Nc4cc(S(=O)(=O)O)c5cc(S(=O)(=O)O)c(N=Nc6ccc([N+](=O)[O-])cc6S(=O)(=O)O)c(O)c5c4N)ccc3c2O)c(OCCCS(=O)(=O)O)cc1N=Nc1ccc(S(=O)(=O)O)cc1C(=O)O [compound 21] | ≥ 100
